Measured values reported in patent publication US8906868B2, “Aminoglycoside derivatives” (Rempex Pharmaceuticals, Inc., priority 2010, dated 2014).

Tests used:
PAM3073 aac(6′)-I = assay: microbe, parasite or virus in culture; assay type: cell-based, Pseudomonas aeruginosa; conditions: Table 5
Outline: (§1)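 Compounds were dissolved as CLSI specifies and diluted 2-fold in cation-adjusted Mueller Hinton broth. Colony suspensions were added to a final 5×10^5 CFU/ml, plates incubated 18 hours at 35° C, and MIC scored from absorbance at 600 nm with visual confirmation.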

PAM3072 aac(6′)-II = assay: microbe, parasite or virus in culture; assay type: cell-based, Pseudomonas aeruginosa; conditions: Table 5
Outline: as §1

EC1002 aph(3′)-IV = assay: organism not typed; assay type: cell-based
Outline: (§2)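 A colony from the previous day's agar plate is suspended in CaMHB to give 5×10^5 CFU/ml final. This inoculum is added to 2-fold compound dilutions, incubated 18 hours at 35° C, and turbidity at 600 nm, checked by eye, defines the MIC.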

ECM6010 ant(2″)-I = assay: microbe, parasite or virus in culture; assay type: cell-based, Escherichia coli
Outline: as §2

ECM6011 aph(3′)-I = assay: microbe, parasite or virus in culture; assay type: cell-based, Escherichia coli
Outline: as §2

ECM6009 aac(3)-II = assay: microbe, parasite or virus in culture; assay type: cell-based, Escherichia coli
Outline: as §2

ECM6006 aph(3′)-III = assay: microbe, parasite or virus in culture; assay type: cell-based, Escherichia coli
Outline: as §2

[1] = test system: Pseudomonas aeruginosa (ATCC 27853); assay: MIC, broth microdilution
[2] = test system: Staphylococcus aureus (ATCC 29213); assay: MIC, broth microdilution
[3] = test system: ECM6007 aac(6′) + aph(2″); assay: microbe, parasite or virus in culture; assay type: cell-based, Escherichia coli; conditions: Table 4
Outline: as §1

EC1001 acc(6′)-Ib = assay: microbe, parasite or virus in culture; assay type: cell-based, Escherichia coli; conditions: Table 4
Outline: as §1

[4] = test system: Acinetobacter baumannii (ATCC 19606); assay: MIC, broth microdilution; conditions: QC strain, Table 2
[5] = test system: Escherichia coli (ATCC 25922); assay: MIC, broth microdilution
Sa 287 aac(6′) + aph(2″) = assay: microbe, parasite or virus in culture; assay type: cell-based, Staphylococcus aureus; conditions: Table 5
Outline: as §1

ACM1006 acc(6′)-Ib = assay: microbe, parasite or virus in culture; assay type: cell-based, Acinetobacter baumannii; conditions: Table 4
Outline: as §1

ECM6003 rmtB = assay: microbe, parasite or virus in culture; assay type: cell-based, Escherichia coli; conditions: Table 3
Outline: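 Broth microdilution per CLSI M7-A7 in cation-adjusted Mueller Hinton broth with 2-fold serial dilutions and 5×10^5 CFU/ml inoculum. Incubated 18 hours at 35 °C; MIC read by turbidity at 600 nm and confirmed visually.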

[6] = test system: Klebsiella pneumonia (ATCC 43816); assay: MIC, broth microdilution; conditions: QC strain, Table 2
[7] = test system: Human kidney cortex proximal tubule cells (HK-2); assay: Aminoglycoside cytotoxicity in HK-2 cells (Alamar Blue); assay type: cell-based; conditions: HK-2 cells, 50% decrease in Alamar Blue signal; read-out: IC50 @ 24 hrs
Method: (§3) Human kidney cortex proximal tubule cells (HK-2) were purchased from ATCC and maintained according to manufacturer's recommendations in Keratinocyte Serum-Free Media (SFM; Invitrogen), with 0.05 mg/ml bovine pituitary extract and 5 ng/ml of Epidermal growth factor.
(§4) Solutions of aminoglycosides at a concentration of 50 mg/mL (both control and novel test compounds) were prepared in sterile deionized water. Before treatment of cells, the concentrated drug solutions were diluted to the appropriate concentration in Keratinocyte SFM {20, 10, 5, 2.5, 1.25, 0.6, 0.3, and 0 mM}. Pentamidine was used as a positive control.
(§5) HK-2 cells were seeded at 2.5*10^4 cells/well density in 96-well plates in Keratinocyte SFM and placed in a 37° C. tissue culture CO2 incubator. […]. Each treatment was performed in duplicate. […] Drug solutions were aspirated and replaced with 0.1 ml of 5% Alamar Blue (Abd Serotec) cell proliferation reagent in Keratinocyte SFM. Plates were read on a Molecular Devices Gemini EM fluorometer pre-warmed at 37° C. at […]. Plates were read at 0 and 4 hrs, and were incubated at 37° C. in a CO2 incubator in between reads. The fluorescence signal at the 0 h timepoint was subtracted from that at 4 h to account for background fluorescence.
(§6) The cytotoxicity data were reported as the amount of drug producing a 50% decrease in Alamar Blue signal relative to the no drug treatment control.

ACM1005 ATCC 19004 = assay: MIC, broth microdilution; assay type: cell-based, Acinetobacter baumannii; conditions: Table 4
Outline: as §1

[8] = Aminoglycoside cytotoxicity in HK-2 cells (Alamar Blue); assay type: cell-based, Human; conditions: human
Method: as §3, §4, §5, §6

## Gentamicin [reference compound]
PAM3073 aac(6′)-I
  Compound MIC on Bacterial Strains: Pseudomonas aeruginosa PAM3073 aac(6′)-I: B (MIC of greater than 1 μg/ml to 8 μg/ml)
PAM3072 aac(6′)-II
  Compound MIC on Bacterial Strains: Pseudomonas aeruginosa PAM3072 aac(6′)-II: C (MIC of greater than 8 μg/ml)
EC1002 aph(3′)-IV
  Compound MIC on Bacterial Strains: EC1002 aph(3′)-IV: B (key: A: MIC of 1 μg/ml or less; B: MIC of greater than 1 μg/ml to 8 μg/ml; MIC of greater than 8 μg/ml)
ECM6010 ant(2″)-I
  Compound MIC on Bacterial Strains: ECM6010 ant(2″)-I: C (key: A: MIC of 1 μg/ml or less; B: MIC of greater than 1 μg/ml to 8 μg/ml; MIC of greater than 8 μg/ml)
ECM6011 aph(3′)-I
  Compound MIC on Bacterial Strains: ECM6011 aph(3′)-I: B (key: A: MIC of 1 μg/ml or less; B: MIC of greater than 1 μg/ml to 8 μg/ml; MIC of greater than 8 μg/ml)
ECM6009 aac(3)-II
  Compound MIC on Bacterial Strains: ECM6009 aac(3)-II: C (key: A: MIC of 1 μg/ml or less; B: MIC of greater than 1 μg/ml to 8 μg/ml; MIC of greater than 8 μg/ml)
ECM6006 aph(3′)-III
  Compound MIC on Bacterial Strains: ECM6006 aph(3′)-III: B (key: A: MIC of 1 μg/ml or less; B: MIC of greater than 1 μg/ml to 8 μg/ml; MIC of greater than 8 μg/ml)
[1]; QC strain, Table 2
  Compound MIC on Bacterial Strains: P. aeruginosa ATCC 27853: A (MIC of 1 μg/ml or less)
[1]; Table 5
  Compound MIC on Bacterial Strains: Pseudomonas aeruginosa PAM3034 ATCC 27853: A (MIC of 1 μg/ml or less)
[2]; QC strain, Table 2
  Compound MIC on Bacterial Strains: S. aureus ATCC 29213: A (MIC of 1 μg/ml or less)
[2]; Table 5
  Compound MIC on Bacterial Strains: Staphylococcus aureus SAM1000 ATCC 29213: A (MIC of 1 μg/ml or less)
[3]
  Compound MIC on Bacterial Strains: Escherichia coli ECM6007 aac(6′) + aph(2″): B (MIC of greater than 1 μg/ml to 8 μg/ml)
EC1001 acc(6′)-Ib
  Compound MIC on Bacterial Strains: Escherichia coli EC1001 acc(6′)-Ib: B (MIC of greater than 1 μg/ml to 8 μg/ml)
[4]
  Compound MIC on Bacterial Strains: A. baumannii ATCC 19606: C (MIC of greater than 8 μg/ml)
[5]; QC strain, Table 2
  Compound MIC on Bacterial Strains: E. coli ATCC 25922: A (MIC of 1 μg/ml or less)
[5]; Table 3
  Compound MIC on Bacterial Strains: ECM6000 ATCC 25922: A (MIC of 1 μg/ml or less)
[5]; Table 4
  Compound MIC on Bacterial Strains: Escherichia coli ECM6000 ATCC 25922: A (MIC of 1 μg/ml or less)
Sa 287 aac(6′) + aph(2″)
  Compound MIC on Bacterial Strains: Staphylococcus aureus Sa 287 aac(6′) + aph(2″): C (MIC of greater than 8 μg/ml)
ACM1006 acc(6′)-Ib
  Compound MIC on Bacterial Strains: Acinetobacter baumannii ACM1006 acc(6′)-Ib: B (MIC of greater than 1 μg/ml to 8 μg/ml)
ECM6003 rmtB
  Compound MIC on Bacterial Strains: ECM6003 rmtB: C (MIC of greater than 8 μg/ml)
[6]
  Compound MIC on Bacterial Strains: K. pneumonia ATCC 43816: A (MIC of 1 μg/ml or less)
[7]
  IC50: > 20 mM
ACM1005 ATCC 19004
  Compound MIC on Bacterial Strains: Acinetobacter baumannii ACM1005 ATCC 19004: A (MIC of 1 μg/ml or less)

## NCC[C@H](O)C(=O)N[C@@H]1C[C@H](N)[C@@H](O[C@H]2O[C@H](CN)CC[C@H]2N)[C@H](O)[C@H]1O[C@H]1O[C@H](CO)[C@@H](O)[C@H](N)[C@H]1O [Arbekacin, reference compound]
[8]
  IC50 at 24 h: > 20 mM
